Measurements as given in PMC6014988, “Precision therapeutic targeting of human cancer cell motility” (Nature Communications, 2018).
Entries after “also recorded” stand apart in the source; their conditions may differ.

Legend:
[1] = Three-day MTT cell growth inhibition assay, 1532NPTX; format: cell-based, human; settings: human, 1532NPTX cells
1532NPTX = assay: as above; format: cell-based, human; settings: Homo sapiens, 72 h, 3 days
CK2 = CK2 in vitro kinase assay; format: biochemical; settings: in the presence of CDC37
From the text: CK2 activity. […] If they haven’t, I […]
affected by KBU2046. Specifically, because of CK2’s known link to S226 we likewise suspected that it could be involved in the mechanism of action. CK2 was indeed included in the LUMIER assay (see
Fig. 6 and Supplementary Fig. 19). We used the LUMIER assay to evaluate whether KBU2046 was altering the binding of client protein kinases to HSP90β/CDC37 heterocomplexes in intact cells, and thereby evaluated hundreds of client protein kinases. In this manner, we observed that KBU2046 did […]
known mechanistic link, we also utilized our in vitro system to interrogate purified CK2 and specifically […]
below, and if requested, we are happy to insert these otherwise negative findings into supplementary […]
CK2 in vitro kinase assay. As described in Figs 6f and g, the ability of recombinant CK2 to phosphorylate serine 226 on HSP90β, in the presence of CDC37, was evaluated +/- KBU2046 (46). Reaction time in minutes
(Mins) is denoted. KBU2046 had no effect upon serine 226 phosphorylation.
12. On top of the 8th page of the Results (where the authors discuss data in Fig. 5b-d and in […]
hydrogen bond formation with Glu33 of Hsp90beta to create formation of a new pocket into which the drug binds. […]
Additional comment 1. Figure 4c: if the data are expressed as %VC, should not the VC bar be set at […]

RAF1 = assay: In vitro kinase assay of RAF1, HSP90β and CDC37; format: biochemical; settings: purified recombinant RAF1, HSP90β, CDC37
Experimental: (§1) MEK4/MKK4/MAP2K4 in vitro kinase assay was performed as described by us[45].

MKK4 = MKK4 (Homo sapiens, UniProt P45985); assay: MKK4 in vitro kinase assay; format: biochemical
Sequence of MKK4 (P45985 whole entry): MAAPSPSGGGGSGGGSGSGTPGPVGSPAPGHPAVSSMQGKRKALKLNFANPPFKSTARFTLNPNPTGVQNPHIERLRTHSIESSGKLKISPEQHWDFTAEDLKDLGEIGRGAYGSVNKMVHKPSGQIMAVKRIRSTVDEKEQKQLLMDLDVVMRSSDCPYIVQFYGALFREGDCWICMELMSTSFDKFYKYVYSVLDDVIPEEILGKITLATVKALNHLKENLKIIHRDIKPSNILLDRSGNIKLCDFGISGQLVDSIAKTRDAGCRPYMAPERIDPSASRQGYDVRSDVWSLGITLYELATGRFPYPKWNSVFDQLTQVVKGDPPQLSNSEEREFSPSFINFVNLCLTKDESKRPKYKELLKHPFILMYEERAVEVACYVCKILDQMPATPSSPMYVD
Experimental: as §1
Supplementary Figure 9. […] (a) Depiction of […]
established MKK4 pathway regulating human PCa cell metastasis. […]
to MKK4, as measured by fluorescence-based thermal shift assay. Values are the mean±SD (of N=2 replicates) increase in melting temperature (ΔTm) of purified recombinant MKK4 induced by the indicated concentrations of KBU2046 or genistein. […]
in an in vitro kinase assay. The indicated concentrations of KBU2046 were added to recombinant activated MKK4, and its ability to phosphorylate kinase dead p38α MAPK (K53A) was measured by Western blot for total (p38 MAPK) and phosphorylated (pp38 MAPK) forms of […]
HSP27 in cells. PC3-M cells were pre-treated for 24 hours with 50 µM KBU2046 or genistein, as indicated, then with TGFβ, and Western blot performed. All findings are from a single experiment, with similar findings in identical separate experiments, repeated at least once. […]

estrogen receptor (ER) = assay: Induction of estrogen-responsive genes in MCF-7 cells; format: cell-based, human
Experimental: RNA was isolated and qRT-PCR was performed as described by us[43], analyzed by the 2^−ΔΔCt method, using primer/probes sets (ABI), HSP90α (Hs00743767_sH), HSP90β (Hs00427665_g1), trefoil factor 1 (TFF1; Hs00907239_m1), cathepsin D (CTSD; Hs00157205_m1), progesterone receptor (PGR; Hs01556702_m1), and GAPDH (Hs99999905_m1). Assays were repeated, each in replicates of N = 2. […]
panel. KBU2046 was submitted to the Developmental Therapeutics Program (DTP) of the US National Cancer Institute (NCI), underwent initial screening across the NCI 60 cell line panel per DTP protocol 1, and the resultant COMPARE diagram is depicted above. Based upon its lack of […]
Supplementary Figure 3. […] Estrogen […]
receptor positive MCF-7 cells were cultured under hormone free conditions transfected pERE-Luc or empty control vector, along with constitutive active β-gal, grown under estrogen-free conditions, and pre-treated for 24 hours with nanomolar concentrations of estradiol, or with micromolar concentrations of genistein or KBU2046, as indicated. Luciferase activity was measured, normalized to that of β-gal, and values expressed as the percent of untreated vector control cells. Values are the mean±SD of a single experiment, with similar results seen in a separate repeat experiment, both in replicates of N=2.
(also on this page, place not known: luciferase/B-gal activity, % untreated vector control) […]

In the case of `O=C1c2ccccc2OCC1c1ccc(F)cc1` (racemic) [KBU2046, (±)-3(4-fluorophenyl)chroman-4-one], the viability at 3 days, 50 µM [1] is reported as 95.3%, the IC20 (1532NPTX) is reported as over 50 µM and the IC50 (1532NPTX) is reported as over 50 µM. The “CK2 phosphorylation of S226 on HSP90β” value (CK2) was “does not inhibit”, the “phosphorylation of RAF1 Ser338” value (RAF1) was “decreased phosphorylation of RAF1’s Ser338 activation motif” and the “inhibition of MKK4 kinase activity” value (MKK4) was “nor inhibit its kinase activity”. For the same compound, the “activation of estrogen-responsive genes” value (estrogen receptor (ER)) was “did not activate estrogen-responsive genes; also recorded: does not activate the estrogen receptor”.
